Patent US7425614B2, “Neuroprotective therapeutics preventing ERK/MAPK activation through the NMDA receptor” (Children's Medical Center Corporation, priority 2003, dated 2008)
Read-outs that look alike come from different tables or passages of the source. Blank lines part the entries; values can stand above or below the molecule they belong to.

Experiments:
ERK = test: phospho-ERK immunocytochemistry in cultured hippocampal neurons; assay type: cell-based, rat
Experimental: Neurons from 18 day rat embryos were dissociated using trypsin and plated on coverslips coated with poly-L-ysine in minimal essential medium (MEM) with 10% NU serum (BD Biosciences, Le Pont de Claix, France) at densities of 30,000 cells/cm^2 as described (Brewer, G. J. (1995) J. Neurosci. Res. 42, 674-683). On days 7 and 11 of culture incubation, half of the medium was changed to MEM with 2% B27 supplement (Invitrogen).
Cells were transfected with cDNA for EGFP fusion proteins (LipofectAMINE 2000; Invitrogen) or by pseudoviral infection using a Sindbis expression system (Invitrogen). Neurons were incubated with cDNA and LipofectAMINE for 2 hr, rinsed, and incubated with culture media (MEM with 2% of B27 supplement) 17 hr prior to the experiment. For viral delivery, neuronal cultures were incubated 30 min with pseudoviral constructs diluted 200-500× in culture media. Cultures were rinsed and incubated in media for 15 hr. 0.1% to 1.5% of neurons were fluorescent after expressing LipofectAMINE-delivered constructs while Sindbis infection yielded 1%-10% transfection efficiency. Most of the experiments were performed on 12-14 days in vitro (div) cultures unless otherwise indicated.
Three hours before stimulation, TTX (1 μM), CNQX (40 μM), APV (100 μM), and nimodipine (5 μM) were added to neurons. For stimulation, coverslips with neurons were transferred into the following solutions.
(1) 100 μM NMDA, 10 μM glycine, 1 μM TTX, 40 μM CNQX, 5 μM nimodipine dissolved in culture media and incubated for 3 min. […]
After stimulation, neurons were fixed with 4% formaldehyde and labeled with rabbit anti-phospho-p44/42 ERK antibody (Cell Signaling) and with mouse anti-MAP2 antibody (Sternberger Monoclonals). Cy3-conjugated goat anti-rabbit IgG and Cy5-conjugated goat antimouse IgG (Jackson Immunoresearch Laboratories, West Grove, Pa.) were secondary antibodies. NMDA and all antagonists were from Tocris Neuramin. BDNF was from Calbiochem. Images were acquired with an Olympus Fluoview-500 confocal microscope (40×; 1.0 NA) and quantified using Olympus Fluoview software. In each experiment, the pERK fluorescence of the cell soma was measured for 25 neurons taken from consecutive fields. Phospho-ERK fluorescence data were normalized to the values obtained in nontransfected cells after NMDA stimulation. The background fluorescence (mean fluorescence of nonstimulated neurons) was subtracted prior to normalization.

[1] = tested on: CREB transcription factor; test: phosphorylation of CREB in cultured hippocampal neurons; assay type: cell-based, rat; conditions: control experiments
SynGAP = test: phosphorylation of SynGAP in cultured hippocampal neurons; assay type: cell-based, rat; conditions: control experiments
NMDA receptors = conditions: cited from earlier work
NR2A = target: T1, NR2A (Rattus norvegicus, UniProt Q00959); conditions: 3 μM; heterologous expression systems; cited from earlier work
T1 construct: host or cells: heterologous expression systems (not specified)

NR2B = target: T2, NR2B (Rattus norvegicus, UniProt P35439+Q00960); conditions: 3 μM; heterologous expression systems; cited from earlier work
T2 construct: host or cells: heterologous expression systems (not specified)

NMDA receptor = test: whole-cell recordings of NMDAR-mediated currents in cultured hippocampal neurons; assay type: cell-based, rat
full-length NR2B = target: T3, full-length NR2B (Rattus norvegicus, UniProt Q00960); test: in vitro binding of in vitro translated HA-tagged RasGRF1 fragments to full-length NR2B (co-immunoprecipitation); conditions: epitope-tagged RasGRF1 fragments
T3 construct: In vitro translated full-length NR2B and HA-tagged RasGRF1 fragments were co-immunoprecipitated with anti-HA antibody; made in house; host or cells: cell-free in vitro translation (35S-labelled)
Text: For in vitro translation, fragments of rat NR2B and rat RasGRF1 were made by PCR with 5′-primers containing AU1- and HA-tag encoding sequences; amplified sequences were subcloned into pcDNA3.1. For 293T transfection, the following cDNAs were used: mouse RasGRF1 in pcDNA3, GFP-rat NR2B, GFP rat NR2A in pcDNA1.1, and rat NR1 in pEGFP-C1 (Clontech). EGFP fusion constructs were made by subcloning cDNA fragments encoding different portions of NR2B and RasGRF1 into pEGFP-C1 (Clontech). EGFP fusion constructs were transferred from pEGFP into pSinRep5 and used for preparation of the Sindbis pseudovirus gene transfer system according to the manufacturer's protocol (Invitrogen, Carlsbad, Calif.).
For in vitro binding experiments, equimolar amounts of in vitro translated ^35S-labeled proteins (calculated from radioactivity of the excised protein band and cysteine content in the specific fragment) were incubated with a 3-fold molar excess of translated RasGRF1 for 30 min at 30° C., diluted with RIPA buffer, and immunoprecipitated with anti-HA-agarose (Santa Cruz). In competition experiments, RasGRF1 and NR2B were immunoprecipitated for 2 hr at 4° C. from solubilized rat brain microsomes in the presence of 10 μM NusA, 10 μM NusA-RasGRF1-BD, or 5 μM NusA-NR2B-BD.

T3 sequence (Q00960 27-1482 E1256K/V1430S/T1431A): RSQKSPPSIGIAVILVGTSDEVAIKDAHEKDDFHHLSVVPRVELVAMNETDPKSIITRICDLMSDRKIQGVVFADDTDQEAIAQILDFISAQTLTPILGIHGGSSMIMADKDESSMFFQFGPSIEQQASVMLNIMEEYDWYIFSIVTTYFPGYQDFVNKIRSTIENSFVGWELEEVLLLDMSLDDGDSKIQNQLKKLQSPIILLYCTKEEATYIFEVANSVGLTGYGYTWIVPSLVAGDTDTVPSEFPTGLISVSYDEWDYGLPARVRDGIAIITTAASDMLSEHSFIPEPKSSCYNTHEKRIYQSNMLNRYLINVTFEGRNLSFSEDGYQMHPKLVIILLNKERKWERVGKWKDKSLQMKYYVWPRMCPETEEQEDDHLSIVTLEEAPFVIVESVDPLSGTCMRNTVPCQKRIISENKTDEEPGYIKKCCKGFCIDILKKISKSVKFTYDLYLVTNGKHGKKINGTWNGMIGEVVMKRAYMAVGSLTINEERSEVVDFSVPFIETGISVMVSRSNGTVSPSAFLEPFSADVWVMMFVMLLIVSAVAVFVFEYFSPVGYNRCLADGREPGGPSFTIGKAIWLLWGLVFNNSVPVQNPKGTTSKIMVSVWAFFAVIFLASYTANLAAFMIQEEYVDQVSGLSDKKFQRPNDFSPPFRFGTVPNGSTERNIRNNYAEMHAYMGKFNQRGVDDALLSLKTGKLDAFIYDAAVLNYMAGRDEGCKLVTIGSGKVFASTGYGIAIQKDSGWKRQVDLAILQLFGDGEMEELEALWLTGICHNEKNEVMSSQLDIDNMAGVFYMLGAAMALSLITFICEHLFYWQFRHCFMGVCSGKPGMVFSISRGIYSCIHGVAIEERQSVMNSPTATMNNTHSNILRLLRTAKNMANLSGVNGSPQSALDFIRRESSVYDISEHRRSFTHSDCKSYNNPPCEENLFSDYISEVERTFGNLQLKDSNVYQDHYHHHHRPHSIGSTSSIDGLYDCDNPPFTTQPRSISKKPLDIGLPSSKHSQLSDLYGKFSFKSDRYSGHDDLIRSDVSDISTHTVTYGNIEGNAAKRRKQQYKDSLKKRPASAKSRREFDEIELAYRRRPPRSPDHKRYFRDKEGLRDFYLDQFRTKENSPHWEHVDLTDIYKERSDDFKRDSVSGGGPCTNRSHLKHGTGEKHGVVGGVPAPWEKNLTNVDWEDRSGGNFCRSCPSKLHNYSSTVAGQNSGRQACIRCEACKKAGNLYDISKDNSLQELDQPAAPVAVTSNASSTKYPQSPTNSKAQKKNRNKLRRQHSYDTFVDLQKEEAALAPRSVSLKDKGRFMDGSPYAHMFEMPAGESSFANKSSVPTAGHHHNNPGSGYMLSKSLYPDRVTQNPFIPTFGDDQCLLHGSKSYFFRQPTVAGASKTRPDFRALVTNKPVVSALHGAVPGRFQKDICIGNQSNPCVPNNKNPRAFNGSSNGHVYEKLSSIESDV
T1 sequence (Q00959 23-1464): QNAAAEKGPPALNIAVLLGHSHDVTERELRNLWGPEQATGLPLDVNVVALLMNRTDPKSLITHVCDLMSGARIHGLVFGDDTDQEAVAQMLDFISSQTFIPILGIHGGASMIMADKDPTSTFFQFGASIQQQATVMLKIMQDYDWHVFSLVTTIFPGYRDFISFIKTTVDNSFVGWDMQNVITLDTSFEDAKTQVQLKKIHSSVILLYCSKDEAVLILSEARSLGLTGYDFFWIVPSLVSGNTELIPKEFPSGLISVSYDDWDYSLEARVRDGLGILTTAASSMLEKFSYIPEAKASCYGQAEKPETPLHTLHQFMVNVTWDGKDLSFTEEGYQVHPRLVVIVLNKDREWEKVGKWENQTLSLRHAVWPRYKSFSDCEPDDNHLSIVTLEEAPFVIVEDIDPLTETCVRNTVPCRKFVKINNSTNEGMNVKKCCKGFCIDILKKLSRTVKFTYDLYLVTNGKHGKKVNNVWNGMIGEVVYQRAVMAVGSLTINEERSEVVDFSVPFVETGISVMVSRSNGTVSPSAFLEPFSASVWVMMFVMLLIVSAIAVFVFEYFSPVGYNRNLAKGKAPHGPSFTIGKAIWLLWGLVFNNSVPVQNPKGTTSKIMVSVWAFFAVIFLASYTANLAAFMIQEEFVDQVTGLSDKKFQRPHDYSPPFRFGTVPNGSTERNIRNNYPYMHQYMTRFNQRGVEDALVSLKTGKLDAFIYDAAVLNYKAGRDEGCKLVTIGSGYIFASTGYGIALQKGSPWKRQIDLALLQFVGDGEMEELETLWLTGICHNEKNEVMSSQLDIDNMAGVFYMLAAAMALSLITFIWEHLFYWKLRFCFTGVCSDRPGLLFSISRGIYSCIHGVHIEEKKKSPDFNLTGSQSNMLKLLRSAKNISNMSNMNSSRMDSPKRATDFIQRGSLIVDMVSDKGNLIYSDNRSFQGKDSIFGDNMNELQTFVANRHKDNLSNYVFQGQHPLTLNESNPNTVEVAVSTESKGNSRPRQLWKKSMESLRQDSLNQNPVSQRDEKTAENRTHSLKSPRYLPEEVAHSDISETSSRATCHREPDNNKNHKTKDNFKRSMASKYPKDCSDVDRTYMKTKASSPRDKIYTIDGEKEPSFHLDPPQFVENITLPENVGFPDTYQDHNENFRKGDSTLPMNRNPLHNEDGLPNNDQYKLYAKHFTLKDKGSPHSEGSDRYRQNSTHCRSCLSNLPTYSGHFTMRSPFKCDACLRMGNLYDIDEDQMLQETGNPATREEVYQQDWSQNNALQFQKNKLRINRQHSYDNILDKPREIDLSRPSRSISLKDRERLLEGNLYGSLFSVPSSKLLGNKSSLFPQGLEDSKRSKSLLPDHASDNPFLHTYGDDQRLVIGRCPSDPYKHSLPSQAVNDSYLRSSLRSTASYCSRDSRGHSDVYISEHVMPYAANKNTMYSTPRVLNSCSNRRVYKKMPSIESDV
T2 sequence (Q00960 27-1482, other chains not shown): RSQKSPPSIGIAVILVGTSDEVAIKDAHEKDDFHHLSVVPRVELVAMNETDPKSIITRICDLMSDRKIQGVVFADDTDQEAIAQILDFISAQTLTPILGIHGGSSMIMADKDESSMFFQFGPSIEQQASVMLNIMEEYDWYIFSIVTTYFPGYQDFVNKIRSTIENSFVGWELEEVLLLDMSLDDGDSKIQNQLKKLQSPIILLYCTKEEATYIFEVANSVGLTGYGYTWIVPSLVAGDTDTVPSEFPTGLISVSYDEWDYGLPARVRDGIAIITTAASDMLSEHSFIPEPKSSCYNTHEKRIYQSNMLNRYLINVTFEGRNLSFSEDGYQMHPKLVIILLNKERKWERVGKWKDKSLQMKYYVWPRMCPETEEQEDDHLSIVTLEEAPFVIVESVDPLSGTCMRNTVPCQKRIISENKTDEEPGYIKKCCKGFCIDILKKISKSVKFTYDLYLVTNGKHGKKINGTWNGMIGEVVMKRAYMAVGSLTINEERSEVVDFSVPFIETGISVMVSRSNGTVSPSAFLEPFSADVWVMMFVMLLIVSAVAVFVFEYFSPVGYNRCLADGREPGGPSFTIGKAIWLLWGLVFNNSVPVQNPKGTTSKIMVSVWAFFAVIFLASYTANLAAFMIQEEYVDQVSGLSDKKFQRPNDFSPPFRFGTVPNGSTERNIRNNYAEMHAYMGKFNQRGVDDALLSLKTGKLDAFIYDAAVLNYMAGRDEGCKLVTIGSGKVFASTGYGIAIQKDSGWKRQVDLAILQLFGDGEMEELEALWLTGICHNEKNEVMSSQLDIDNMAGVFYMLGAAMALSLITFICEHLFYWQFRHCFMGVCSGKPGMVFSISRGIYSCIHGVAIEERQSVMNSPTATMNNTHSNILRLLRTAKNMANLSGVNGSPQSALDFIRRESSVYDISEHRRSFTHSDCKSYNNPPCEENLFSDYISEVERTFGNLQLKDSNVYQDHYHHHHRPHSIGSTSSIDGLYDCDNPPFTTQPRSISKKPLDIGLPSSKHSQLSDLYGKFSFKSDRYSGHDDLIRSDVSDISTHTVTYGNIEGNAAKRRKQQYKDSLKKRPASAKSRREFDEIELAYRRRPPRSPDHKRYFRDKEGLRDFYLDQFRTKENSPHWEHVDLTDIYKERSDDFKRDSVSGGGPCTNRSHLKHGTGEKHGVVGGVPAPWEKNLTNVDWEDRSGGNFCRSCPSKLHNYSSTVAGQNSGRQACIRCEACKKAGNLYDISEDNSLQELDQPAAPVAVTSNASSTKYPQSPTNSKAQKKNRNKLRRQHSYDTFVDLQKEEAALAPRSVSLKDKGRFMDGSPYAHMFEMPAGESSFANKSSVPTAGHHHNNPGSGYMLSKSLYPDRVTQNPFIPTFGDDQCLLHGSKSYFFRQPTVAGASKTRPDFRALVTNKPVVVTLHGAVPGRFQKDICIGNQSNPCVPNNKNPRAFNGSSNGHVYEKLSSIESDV

Molecule: COc1ccc(S(=O)(=O)N(CCO)c2ccccc2CN(C)C/C=C/c2ccc(Cl)cc2)cc1 [KN-93]
NMDA-dependent ERK activation (ERK; 5 μM in the incubation media): had no effect | bicuculline-induced ERK activation (ERK; cultured hippocampal neurons, 10 μM bicuculline): altered neither | NMDA-induced (NMDAR-dependent) ERK activation (ERK; cultured hippocampal neurons, 100 μM NMDA): altered neither | phosphorylation of CREB [1]: effectively suppressed | phosphorylation of SynGAP (SynGAP): effectively suppressed

Molecule: CC(C(O)c1ccc(O)cc1)N1CCC(Cc2ccccc2)CC1 (stereo not drawn) [ifenprodil]
inhibition at 3 µM (ERK; Rattus norvegicus, Hippocampal neuron, 3 μM, hippocampal neurons 8 div, read-out: inhibition of NMDAR activated ERK): 70% | degree of ifenprodil-sensitive ERK activation with days in culture (ERK; during neuron maturation): did not change significantly | inhibition of NMDA-mediated current (NMDA receptors; 3-week-old cultures): 20%-30 | inhibition of NMDA-mediated current (NMDA receptors; young neuronal cultures): ~70% | effect on NR2A-mediated current (NR2A): has no effect | inhibition of NR2B-mediated current (NR2B): up to 80% | decrease of the portion of the ifenprodil-sensitive NMDA current with days in culture (NMDA receptor): ~25% | frequency of spontaneous NMDAR EPSCs (NMDA receptor): significantly reduced | suppression of NMDAR current (NMDA receptor): 60%

binding to NR2B in vitro (full-length NR2B): bound
B1: RasGRF1 amino acids 714-1244: C-terminal prey-containing sequence of RasGRF1 (protein, UniProt Q13972 714-1244, looked up, fragment)
chain: FASGQNNKLLYGEPPKSPRATRKFSSPPPLSITKTSSPSRRRKLSLNIPIITGGKALDLAALSCNSNGYTSMYSAMSPFSKATLDTSKLYVSSSFTNKIPDEGDTTPEKPEDPSALSKQSSEVSMREESDIDQNQSDDGDTETSPTKSPTTPKSVKNKNSSEFPLFSYNNGVVMTSCRELDNNRSALSAASAFAIATAGANEGTPNKEKYRRMSLASAGFPPDQRNGDKEFVIRRAATNRVLNVLRHWVSKHSQDFETNDELKCKVIGFLEEVMHDPELLTQERKAAANIIRTLTQEDPGDNQITLEEITQMAEGVKAEPFENHSALEIAEQLTLLDHLVFKKIPYEEFFGQGWMKLEKNERTPYIMKTTKHFNDISNLIASEIIRNEDINARVSAIEKWVAVADICRCLHNYNAVLEITSSMNRSAIFRLKKTWLKVSKQTKALIDKLQKLVSSEGRFKNLREALKNCDPPCVPYLGMYLTDLAFIEEGTPNYTEDGLVNFSKMRMISHIIREIRQFQQTAYKIEHQAKV

binding to NR2B in vitro (full-length NR2B): did not bind
B2: RasGRF1 amino acids 835-913: shorter peptide of the RasGRF1-specific sequence (protein, UniProt Q13972 835-913, looked up, fragment)
chain: EVSMREESDIDQNQSDDGDTETSPTKSPTTPKSVKNKNSSEFPLFSYNNGVVMTSCRELDNNRSALSAASAFAIATAGA

binding to NR2B in vitro (full-length NR2B): did not bind
B3: RasGRF1 amino acids 714-841: shorter peptide of the RasGRF1-specific sequence (protein, UniProt Q13972 714-841, looked up, fragment)
chain: FASGQNNKLLYGEPPKSPRATRKFSSPPPLSITKTSSPSRRRKLSLNIPIITGGKALDLAALSCNSNGYTSMYSAMSPFSKATLDTSKLYVSSSFTNKIPDEGDTTPEKPEDPSALSKQSSEVSMREE

binding to NR2B in vitro (full-length NR2B): did not bind
B4: RasGRF1 amino acids 1-720: N-terminal portion of RasGRF1, which contains multiple functional domains (protein, UniProt Q13972 1-720, looked up, fragment)
chain: MQKGIRLNDGHVASLGLLARKDGTRKGYLSKRSSDNTKWQTKWFALLQNLLFYFESDSSSRPSGLYLLEGCVCDRAPSPKPALSAKEPLEKQHYFTVNFSHENQKALELRTEDAKDCDEWVAAIAHASYRTLATEHEALMQKYLHLLQIVETEKTVAKQLRQQIEDGEIEIERLKAEITSLLKDNERIQSTQTVAPNDEDSDIKKIKKVQSFLRGWLCRRKWKTIIQDYIRSPHADSMRKRNQVVFSMLEAEAEYVQQLHILVNNFLRPLRMAASSKKPPITHDDVSSIFLNSETIMFLHQIFYQGLKARISSWPTLVLADLFDILLPMLNIYQEFVRNHQYSLQILAHCKQNRDFDKLLKHYEAKPDCEERTLETFLTYPMFQIPRYILTLHELLAHTPHEHVERNSLDYAKSKLEELSRIMHDEVSETENIRKNLAIERMIIEGCEILLDTSQTFVRQGSLIQVPMSEKGKITRGRLGSLSLKKEGERQCFLFSKHLIICTRGSGGKLHLTKNGVISLIDCTLLEEPESTEEEAKGSGQDIDHLDFKIGVEPKDSPPFTVILVASSRQEKAAWTSDISQCVDNIRCNGLMMNAFEENSKVTVPQMIKRTREGTREAEMSRSDASLYCDDVDIRFSKTMNSCKVLQIRYASVERLLERLTDLRFLSIDFLNTFLHSYRVFTTAIVVLDKLITIYKKPISAIPARWLRSLELLFASGQNN
